Nine molecules from BindingDB's records for doi:10.1016/s0960-894x(02)00627-3 (Keio University, 2002) can be followed below.

The target in experiment [1] is alpha-L-fucosidase (Bos taurus). In words: Inhibition of bovine kidney alpha-L-fucosidase.
Experiment [2] shares this target. The experiment is described as follows: Binding affinity against alpha-L-fucosidase in bovine kidney was determined.
Experiment [3] has the same target. The experiment is described as above. The source holds these as a separate data set.

On to `CC1CC(NCc2ccccc2)C(O)C(O)C1O` [(1R,2S,3S)-4-Benzylamino-6-methyl-cyclohexane-1,2,3-triol], for which the IC50 in experiment [1] was determined as 1000 nM. Further, the affinity in experiment [2] corresponds to a Ki of 69 nM.

The molecule `CCCCNC1CC(C)C(O)C(O)C1O` [(1R,2S,3S)-4-Butylamino-6-methyl-cyclohexane-1,2,3-triol] displayed a Ki in experiment [3] of 74 nM. Besides, in experiment [1], inhibition was half-maximal at 920 nM (IC50). `CCNC1CC(C)C(O)C(O)C1O` [(1R,2S,3S)-4-Ethylamino-6-methyl-cyclohexane-1,2,3-triol] displayed a Ki in experiment [3] of 180 nM. The same molecule came in with an IC50 in experiment [1] of 21000 nM. `CCCCCCCNC1CC(C)C(O)C(O)C1O` [(1R,2S,3S)-4-Heptylamino-6-methyl-cyclohexane-1,2,3-triol] gave a Ki in experiment [3] of 48 nM. Moreover, in experiment [1], it took 270 nM to reach half-maximal inhibition (IC50). The matching figures for `CCCCCCCCCNC1CC(C)C(O)C(O)C1O` [(1S,2S,3R)-4-Methyl-6-nonylamino-cyclohexane-1,2,3-triol]: 110 nM and 240 nM.

In experiment [3], `CC1CC(NCCc2ccccc2)C(O)C(O)C1O` [(1S,2S,3R)-4-Methyl-6-phenethylamino-cyclohexane-1,2,3-triol] gave a Ki of 32 nM. This molecule also returned an IC50 in experiment [1] of 240 nM. In the case of `CC1CC2N=C(NCc3ccccc3)OC2C(O)C1O` [(6R,7S,7aS)-2-Benzylamino-5-methyl-3a,4,5,6,7,7a-hexahydro-benzooxazole-6,7-diol], in experiment [1], the IC50 came out at 72000 nM. That is a double-digit micromolar value.

In experiment [1], `CCCCNC1=NC2CC(C)C(O)C(O)C2O1` [(6R,7S,7aS)-2-Butylamino-5-methyl-3a,4,5,6,7,7a-hexahydro-benzooxazole-6,7-diol] showed an IC50 of 140000 nM. Same read-out and setting: the same measure for `CC1CC2N=C(Nc3ccccc3)OC2C(O)C1O` [(6R,7S,7aS)-5-Methyl-2-phenylamino-3a,4,5,6,7,7a-hexahydro-benzooxazole-6,7-diol]: 7600 nM.

Usually IC50 stands for the concentration at which inhibition is half-maximal. Usually Ki stands for a measure of affinity in units of concentration, obtained from inhibition or displacement.
